Assay results reported in PubChem BioAssay (NCI).
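A five-concentration, 48-hour dose response in 96-well plates underlies each endpoint, interpolated linearly between surrounding concentrations. Definition used: TGI = concentration required for complete inhibition of growth.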

Tests used:
Assay in all cases: NCI-60 cell line screen, 48 h
EKVX NSCLC = test system: EKVX NSCLC
MALME-3M melanoma = test system: MALME-3M melanoma
CCRF-CEM leukemia = test system: CCRF-CEM leukemia
HCT-116 colon = test system: HCT-116 colon
RPMI-8226 leukemia = test system: RPMI-8226 leukemia
HT29 colon = test system: HT29 colon
HL-60(TB) leukemia = test system: HL-60(TB) leukemia
OVCAR-8 ovarian = test system: OVCAR-8 ovarian
HS 578T breast = test system: HS 578T breast
MDA-N = test system: MDA-N
SK-MEL-28 melanoma = test system: SK-MEL-28 melanoma
T-47D breast = test system: T-47D breast
LOX IMVI melanoma = test system: LOX IMVI melanoma
A549 NSCLC = test system: A549 NSCLC
BT-549 breast = test system: BT-549 breast
MOLT-4 leukemia = test system: MOLT-4 leukemia
SF-268 CNS = test system: SF-268 CNS
MDA-MB-435 = test system: MDA-MB-435
RXF 393 renal = test system: RXF 393 renal
SK-MEL-2 melanoma = test system: SK-MEL-2 melanoma
M14 melanoma = test system: M14 melanoma
NCI-H23 lung = test system: NCI-H23 lung
MCF7 breast = test system: MCF7 breast
SF-539 CNS = test system: SF-539 CNS
NCI-H522 lung = test system: NCI-H522 lung
HCT-15 colon = test system: HCT-15 colon
HOP-62 NSCLC = test system: HOP-62 NSCLC
SR leukemia = test system: SR leukemia
K-562 leukemia = test system: K-562 leukemia
SW-620 colon = test system: SW-620 colon
NCI-H226 lung = test system: NCI-H226 lung
COLO 205 colon = test system: COLO 205 colon
PC-3 prostate = test system: PC-3 prostate
OVCAR-4 ovarian = test system: OVCAR-4 ovarian
SNB-19 CNS = test system: SNB-19 CNS
UO-31 renal = test system: UO-31 renal
OVCAR-3 ovarian = test system: OVCAR-3 ovarian
KM12 colon = test system: KM12 colon
NCI/ADR-RES ovarian = test system: NCI/ADR-RES ovarian
SN12C renal = test system: SN12C renal
HOP-92 NSCLC = test system: HOP-92 NSCLC
IGROV1 ovarian = test system: IGROV1 ovarian
OVCAR-5 ovarian = test system: OVCAR-5 ovarian
SNB-75 CNS = test system: SNB-75 CNS
DU-145 prostate = test system: DU-145 prostate
SF-295 CNS = test system: SF-295 CNS
SK-OV-3 ovarian = test system: SK-OV-3 ovarian
CAKI-1 renal = test system: CAKI-1 renal
786-0 renal = test system: 786-0 renal
SK-MEL-5 melanoma = test system: SK-MEL-5 melanoma
ACHN renal = test system: ACHN renal
UACC-257 melanoma = test system: UACC-257 melanoma
UACC-62 melanoma = test system: UACC-62 melanoma
A498 renal = test system: A498 renal
TK-10 renal = test system: TK-10 renal
HCC-2998 colon = test system: HCC-2998 colon
NCI-H460 lung = test system: NCI-H460 lung
MDA-MB-231 breast = test system: MDA-MB-231 breast
U251 CNS = test system: U251 CNS

COc1ccc(-c2cc(-c3cc4cc(Br)ccc4nc3Cl)c(C#N)c(N)n2)cc1
TGI (EKVX NSCLC): > 12.5 µM | TGI (MALME-3M melanoma): > 12.5 µM | TGI (CCRF-CEM leukemia): > 12.5 µM | TGI (HCT-116 colon): > 12.5 µM | TGI (RPMI-8226 leukemia): > 12.5 µM | TGI (HT29 colon): > 12.5 µM | TGI (HL-60(TB) leukemia): > 12.5 µM | TGI (OVCAR-8 ovarian): > 12.5 µM | TGI (HS 578T breast): > 12.5 µM | TGI (MDA-N): > 12.5 µM | TGI (SK-MEL-28 melanoma): > 12.5 µM | TGI (T-47D breast): > 12.5 µM | TGI (LOX IMVI melanoma): > 12.5 µM | TGI (A549 NSCLC): > 12.5 µM | TGI (BT-549 breast): > 12.5 µM | TGI (MOLT-4 leukemia): > 12.5 µM | TGI (SF-268 CNS): > 12.5 µM | TGI (MDA-MB-435): > 12.5 µM | TGI (RXF 393 renal): > 12.5 µM | TGI (SK-MEL-2 melanoma): > 12.5 µM | TGI (M14 melanoma): > 12.5 µM | TGI (NCI-H23 lung): > 12.5 µM | TGI (MCF7 breast): > 12.5 µM | TGI (SF-539 CNS): > 12.5 µM | TGI (NCI-H522 lung): > 12.5 µM | TGI (HCT-15 colon): > 12.5 µM | TGI (HOP-62 NSCLC): > 12.5 µM | TGI (SR leukemia): > 12.5 µM | TGI (K-562 leukemia): > 12.5 µM | TGI (SW-620 colon): > 12.5 µM | TGI (NCI-H226 lung): > 12.5 µM | TGI (COLO 205 colon): > 12.5 µM | TGI (PC-3 prostate): > 12.5 µM | TGI (OVCAR-4 ovarian): > 12.5 µM | TGI (SNB-19 CNS): > 12.5 µM | TGI (UO-31 renal): > 12.5 µM | TGI (OVCAR-3 ovarian): > 12.5 µM | TGI (KM12 colon): > 12.5 µM | TGI (NCI/ADR-RES ovarian): > 12.5 µM | TGI (SN12C renal): > 12.5 µM | TGI (HOP-92 NSCLC): > 12.5 µM | TGI (IGROV1 ovarian): > 12.5 µM | TGI (OVCAR-5 ovarian): > 12.5 µM | TGI (SNB-75 CNS): > 12.5 µM | TGI (DU-145 prostate): > 12.5 µM | TGI (SF-295 CNS): > 12.5 µM | TGI (SK-OV-3 ovarian): > 12.5 µM | TGI (CAKI-1 renal): > 12.5 µM | TGI (786-0 renal): > 12.5 µM | TGI (SK-MEL-5 melanoma): > 12.5 µM

CSc1n[nH]c(N)c1C(=O)Nc1ccc(C)cc1
TGI (EKVX NSCLC): > 100 µM | TGI (ACHN renal): > 100 µM | TGI (MALME-3M melanoma): > 100 µM | TGI (CCRF-CEM leukemia): > 100 µM | TGI (HCT-116 colon): > 100 µM | TGI (UACC-257 melanoma): > 100 µM | TGI (RPMI-8226 leukemia): > 100 µM | TGI (HT29 colon): > 100 µM | TGI (HL-60(TB) leukemia): > 100 µM | TGI (UACC-62 melanoma): > 100 µM | TGI (HS 578T breast): > 100 µM | TGI (MDA-N): > 100 µM | TGI (SK-MEL-28 melanoma): > 100 µM | TGI (T-47D breast): 94.8 µM | TGI (LOX IMVI melanoma): > 100 µM | TGI (A549 NSCLC): > 100 µM | TGI (BT-549 breast): > 100 µM | TGI (MOLT-4 leukemia): > 100 µM | TGI (SF-268 CNS): > 100 µM | TGI (MDA-MB-435): > 100 µM | TGI (RXF 393 renal): > 100 µM | TGI (SK-MEL-2 melanoma): > 100 µM | TGI (A498 renal): 82.7 µM | TGI (TK-10 renal): > 100 µM | TGI (M14 melanoma): > 100 µM | TGI (NCI-H23 lung): > 100 µM | TGI (MCF7 breast): > 100 µM | TGI (SF-539 CNS): > 100 µM | TGI (NCI-H522 lung): > 100 µM | TGI (HCT-15 colon): > 100 µM | TGI (HOP-62 NSCLC): > 100 µM | TGI (SR leukemia): > 100 µM | TGI (K-562 leukemia): > 100 µM | TGI (SW-620 colon): > 100 µM | TGI (NCI-H226 lung): > 100 µM | TGI (COLO 205 colon): > 100 µM | TGI (PC-3 prostate): > 100 µM | TGI (OVCAR-4 ovarian): > 100 µM | TGI (SNB-19 CNS): > 100 µM | TGI (UO-31 renal): > 100 µM | TGI (OVCAR-3 ovarian): > 100 µM | TGI (HCC-2998 colon): > 100 µM | TGI (SN12C renal): > 100 µM | TGI (NCI-H460 lung): > 100 µM | TGI (HOP-92 NSCLC): 68.3 µM | TGI (OVCAR-5 ovarian): > 100 µM | TGI (DU-145 prostate): > 100 µM | TGI (SF-295 CNS): > 100 µM | TGI (SK-OV-3 ovarian): > 100 µM | TGI (CAKI-1 renal): > 100 µM | TGI (786-0 renal): > 100 µM | TGI (SK-MEL-5 melanoma): > 100 µM | TGI (MDA-MB-231 breast): > 100 µM | TGI (U251 CNS): > 100 µM
